For this experiment, the target named is recombinant human integrin αVβ6 (Homo sapiens, UniProt P06756+P18564). The experiment is described as follows: Solid phase integrin αVβ6 binding assay (Examples B1, B2). The following applies: TGFβ1 LAP binding, values given in four ranges, read-out: αvβ6 Inhibition IC50 (nM) - range. How it is done:
(§1) Microplates were coated with recombinant human integrin αVβ6 (2 μg/mL) in PBS (100 μL/well 25° C., overnight). The coating solution was removed, washed with wash buffer (0.05% Tween 20: 0.5 mM MnCl2; in 1×TBS). The plate was blocked with 200 μL/well of Block Buffer (1% BSA; 5% sucrose; 0.5 mM MnCl2; in 1×TBS) at 37° C. for 2 h. Dilutions of testing compounds and recombinant TGFβ1 LAP (0.67 μg/mL) in binding buffer (0.05% BSA; 2.5% sucrose; 0.5 mM MnCl2; in 1×TBS) were added. The plate was incubated for 2 hours at 25° C., washed, and incubated for 1 hour with Biotin-Anti-hLAP. Bound antibody was detected by peroxidase-conjugated streptavidin. The IC50 values for testing compounds were calculated by a four-parameter logistic regression.
The compounds tested were compound samples prepared according to procedures described in the Synthetic Examples section, with the stereochemical purity as indicated in the Examples.
as §1, with “A third series of exemplary compounds was selected for testing in the solid phase integrin αVβ6 binding assay. The compounds tested were compound samples prepared according to procedures described in the Synthetic Examples section, with the stereochemical purity as indicated in the Examples. As in Example B1, microplates” for “Microplates”, “20;” for “20:”
recombinant human integrin αVβ6, sequence (P06756 31-992 limits assumed): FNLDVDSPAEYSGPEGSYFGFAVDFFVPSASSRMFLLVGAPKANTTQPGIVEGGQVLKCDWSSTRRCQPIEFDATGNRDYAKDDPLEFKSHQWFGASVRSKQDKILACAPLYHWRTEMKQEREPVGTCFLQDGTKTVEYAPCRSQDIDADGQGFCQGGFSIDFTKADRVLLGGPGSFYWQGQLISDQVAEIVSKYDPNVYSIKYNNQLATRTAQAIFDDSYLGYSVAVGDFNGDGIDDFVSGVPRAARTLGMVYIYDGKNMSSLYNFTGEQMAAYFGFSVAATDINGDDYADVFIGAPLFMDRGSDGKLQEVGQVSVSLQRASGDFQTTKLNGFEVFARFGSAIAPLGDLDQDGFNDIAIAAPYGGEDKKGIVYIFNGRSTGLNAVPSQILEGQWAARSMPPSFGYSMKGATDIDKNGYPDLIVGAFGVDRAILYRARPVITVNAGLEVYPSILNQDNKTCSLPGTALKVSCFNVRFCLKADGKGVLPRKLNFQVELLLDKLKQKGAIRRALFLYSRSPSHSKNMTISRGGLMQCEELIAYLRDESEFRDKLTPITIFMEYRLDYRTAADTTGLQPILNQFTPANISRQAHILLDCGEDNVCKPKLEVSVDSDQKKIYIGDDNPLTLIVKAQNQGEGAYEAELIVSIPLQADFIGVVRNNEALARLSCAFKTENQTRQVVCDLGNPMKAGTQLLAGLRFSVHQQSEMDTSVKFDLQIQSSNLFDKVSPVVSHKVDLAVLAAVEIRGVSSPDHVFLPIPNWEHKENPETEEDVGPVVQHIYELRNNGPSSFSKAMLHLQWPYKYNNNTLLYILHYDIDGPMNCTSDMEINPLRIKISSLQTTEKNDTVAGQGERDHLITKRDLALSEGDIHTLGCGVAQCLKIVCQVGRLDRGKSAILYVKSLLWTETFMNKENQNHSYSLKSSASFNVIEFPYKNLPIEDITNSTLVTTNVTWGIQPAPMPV
recombinant human integrin αVβ6, sequence (P18564 22-707 limits assumed): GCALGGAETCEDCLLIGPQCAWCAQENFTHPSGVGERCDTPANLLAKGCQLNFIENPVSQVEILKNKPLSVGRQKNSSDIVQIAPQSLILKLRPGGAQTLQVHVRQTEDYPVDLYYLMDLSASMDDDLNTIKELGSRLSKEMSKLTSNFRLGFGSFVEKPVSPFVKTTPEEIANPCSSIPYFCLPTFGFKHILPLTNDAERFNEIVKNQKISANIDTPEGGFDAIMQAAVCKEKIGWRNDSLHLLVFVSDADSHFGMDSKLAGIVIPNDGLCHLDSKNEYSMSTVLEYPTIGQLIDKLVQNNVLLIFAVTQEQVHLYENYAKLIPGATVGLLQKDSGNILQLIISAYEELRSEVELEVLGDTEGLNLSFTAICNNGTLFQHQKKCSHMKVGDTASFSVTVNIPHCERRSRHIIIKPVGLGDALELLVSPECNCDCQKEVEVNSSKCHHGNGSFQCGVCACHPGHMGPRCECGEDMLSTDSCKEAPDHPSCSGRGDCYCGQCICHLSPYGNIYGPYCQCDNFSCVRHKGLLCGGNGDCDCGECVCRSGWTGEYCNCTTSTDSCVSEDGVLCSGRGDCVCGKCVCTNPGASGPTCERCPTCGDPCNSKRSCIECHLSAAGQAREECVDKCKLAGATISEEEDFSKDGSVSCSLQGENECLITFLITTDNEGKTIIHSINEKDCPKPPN
A word on the IC50: it is the midpoint of a concentration-inhibition curve. Turning to `COCCN(CCCCc1ccc2c(n1)NCCC2)CC[C@H](Nc1cc(C(F)F)ncn1)C(=O)O` [Compound 23, (S)-2-((6-(difluoromethyl)pyrimidin-4-yl)amino)-4-((2-methoxyethyl) (4-(5,6,7,8-tetrahydro-1,8-naphthyridin-2-yl)butyl)amino) butanoic acid], the IC50 was less than 50 nM.

As for `O=C(O)[C@H](CCN(CCCCc1ccc2c(n1)NCCC2)CCOC(F)F)Nc1ncnc2ccccc12` [Compound 35, (S)-4-((2-(difluoromethoxy)ethyl) (4-(5,6,7,8-tetrahydro-1,8-naphthyridin-2-yl)butyl)amino)-2-(quinazolin-4-ylamino) butanoic acid], the IC50 is less than 50 nM.

Turning to `Cc1ncccc1OCCN(CCCCc1ccc2c(n1)NCCC2)CC[C@H](Nc1ncnc2cccnc12)C(=O)O` [Compound 54, (S)-4-((2-((2-methylpyridin-3-yl)oxy)ethyl) (4-(5,6,7,8-tetrahydro-1,8-naphthyridin-2-yl)butyl)amino)-2-(pyrido[3,2-d]pyrimidin-4-ylamino) butanoic acid], the IC50 was less than 50 nM.

As for `CO[C@H](C)CN(CCCCc1ccc2c(n1)NCCC2)CC[C@H](Nc1ncc(Br)cn1)C(=O)O` [Compound 70, (S)-2-((5-bromopyrimidin-2-yl)amino)-4-(((R)-2-methoxypropyl) (4-(5,6,7,8-tetrahydro-1,8-naphthyridin-2-yl)butyl)amino) butanoic acid], the IC50 is less than 50 nM.

As for `O=C(O)[C@H](CCN(CCCCc1ccc2c(n1)NCCC2)CCOc1ccccc1)Nc1ncc(Br)cn1` [Compound 83, (S)-2-((5-bromopyrimidin-2-yl)amino)-4-((2-phenoxyethyl) (4-(5,6,7,8-tetrahydro-1,8-naphthyridin-2-yl)butyl)amino) butanoic acid], the half-maximal inhibitory concentration (IC50) is less than 50 nM. `O=C(O)[C@H](CCN(CCCCc1ccc2c(n1)NCCC2)CCOc1ccccc1)Nc1ccnc(C(F)(F)F)n1` [Compound 92, (S)-4-((2-phenoxyethyl) (4-(5,6,7,8-tetrahydro-1,8-naphthyridin-2-yl)butyl)amino)-2-((2-(rifluoromethyl)pyrimidin-4-yl)amino) butanoic acid]: the IC50 was less than 50 nM. Then `O=C(O)[C@H](CCN(CCCCc1ccc2c(n1)NCCC2)CC(F)F)Nc1ccncn1` [Compound 120, (S)-4-((2,2-difluoroethyl) (4-(5,6,7,8-tetrahydro-1,8-naphthyridin-2-yl)butyl)amino)-2-(pyrimidin-4-ylamino) butanoic acid], with greater than 1000 nM.

The values above are taken from patent US20230181546A1, “TREATMENT OF RESPIRATORY DISEASES WITH AMINO ACID COMPOUNDS” (Pliant Therapeutics, Inc., priority 2020, published 2023).
